Test results published in patent publication EP1541694A1, “Methods of identifying, selecting and/or characterizing compounds which modulate the activity of a Src family kinase” (Sirenade Pharmaceuticals AG, priority 2003, dated 2005).

Test system: Src-YF expressing ZM77 cell lines
Assay: Suppression of tet-induced phenotype changes (cell scattering) in suspension, Ultra Low Attachment plates
Assay type: cell-based, human
Conditions: Ultralow Attachment Plates
Method: Cells were seeded into 24-well or 96-well "Ultra Low Attachment" plates (cat.no.: 3473, Costar Corning Corp., Acton, MA, USA). These plates are coated with a covalently bound hydrogel layer that prevents cellular attachment to the polystyrene surface of the wells. As the cells were not attached to these wells, a medium change was impossible here. However, the phenotypes were tested in full serum-containing medium in the absence or presence of EGF, PDGF-BB or HGF as detailed above. Tet-induction was also started the day after seeding.
Largely irrespective of the cell numbers per well, the cells of all cell lines were in suspension and formed one or few very condensed/compact, opaque, rod-, disc- or kidney-shaped aggregates with a smooth surface, in which individual cells could not be discerned. Phenotype changes became apparent ~24 h after tet induction in ZM77 and ZM170 cell lines only, and Δpt(-tet →+tet)max was reached after ~2 days. In these cell lines Src-YF or Src-TQ/YF expression, respectively, induces scattering of the cells. Many cells are floating in the medium individually or in small clusters and the remaining large aggregate(s) are irregular-shaped and rather loose than compact; individual cells can easily be discerned and thus, the surfaces of these aggregates are rough as with bunches of grapes (Fig.14a,b). This biological response was readily observed with or without any of the above growth factors, wherefore normal growth medium without any additional growth factor was subsequently used in this assay type.
To that end, the test compounds PP1-Chr., SU6656 and PP2 were individually added to the cells together with tet, and the development of the phenotype changes in the presence of these compounds was monitored subsequently in direct comparison with tet-induced cells that received no compound (Fig.14c-j). The compounds were also added to the cells without tet-induction of Src/ Src mutant expression as controls for non-specific/ toxicity effects. The experiments were performed with several ZM77 cell lines.

**Q.** With `CC(C)(C)n1nc(-c2ccc(Cl)cc2)c2c(N)ncnc21` [PP2] as the compound, how does the “suppression of tet-induced phenotype changes (cell scattering)” value read?
**A.** partially suppressed
